According to paper PMC12845422, “Characterization of a Novel Family of Contilisant + Belinostat Multitarget Small Molecules in Glioblastoma” (Pharmaceuticals, 2025):
Values joined by “and” are separate entries in the source; they are usually repeats but may differ in a detail not shown here. Identical values can stand only once. “Also recorded” adds a separate entry of the source.

How the values were obtained:
[1] = test system: GNS166 cells; experiment: Cell cycle analysis by flow cytometry; type: cell-based; conditions: 5 μM
Procedure: Cells were harvested using accutase and washed with PBS. Then, 1·10^6 cells were fixed with 70% cold ethanol at −20 °C for at least 24 h, and incubated with 0.5% Triton X-100 and 25 µg/mL RNase A in PBS for 30 minutes at room temperature. Then, DNA was stained with 25 ng/mL propidium iodide for 15 minutes and samples were analyzed using a CytoFLEX flow cytometer (Beckman Coulter Co., Brea, CA, USA).

[2] = test system: U87-MG cells; experiment: MTT cell viability, U87-MG; type: cell-based; conditions: Homo sapiens, U-87 MG, 72 h
Procedure: (§1) Cells were seeded at a density of 1.5 × 10^3 cells/well (conventional cell lines) or 5 × 10^3 cells/well (GNS and NHA) in 96-well plates and incubated overnight. Cells were then treated with increasing concentrations of MSMs. After 72 h, cells were incubated for 3.5 h with MTT, after which absorbance at 570 nm was measured. IC50 values were calculated using GraphPad Prism software.

[3] = test system: Normal Human Astrocytes (NHAs); experiment: MTT cell viability, normal human astrocytes; type: cell-based; conditions: Astrocyte, MSM 0–100 μM, 72 h, read-out: IC50 in NHA
Procedure: as §1

[4] = test system: MKN45 gastric cancer cells; experiment: MTT cell viability, MKN45; type: cell-based; conditions: Homo sapiens, MKN-45; MSM 0–10 μM
Procedure: as §1

[5] = test system: RWP1 pancreatic cancer cells; experiment: MTT cell viability, RWP1; type: cell-based; conditions: MSM 0–10 μM
Procedure: as §1

[6] = test system: H1299 lung cancer cells; experiment: MTT cell viability, H1299; type: cell-based; conditions: Homo sapiens, NCI-H1299; MSM 0–10 μM
Procedure: as §1

[7] = target: T1, recombinant hMAO-B (Homo sapiens, UniProt P27338); experiment: MAO-B inhibition assay; type: biochemical; conditions: 30 min preincubation, 37 °C
T1 sequence (P27338 1-520): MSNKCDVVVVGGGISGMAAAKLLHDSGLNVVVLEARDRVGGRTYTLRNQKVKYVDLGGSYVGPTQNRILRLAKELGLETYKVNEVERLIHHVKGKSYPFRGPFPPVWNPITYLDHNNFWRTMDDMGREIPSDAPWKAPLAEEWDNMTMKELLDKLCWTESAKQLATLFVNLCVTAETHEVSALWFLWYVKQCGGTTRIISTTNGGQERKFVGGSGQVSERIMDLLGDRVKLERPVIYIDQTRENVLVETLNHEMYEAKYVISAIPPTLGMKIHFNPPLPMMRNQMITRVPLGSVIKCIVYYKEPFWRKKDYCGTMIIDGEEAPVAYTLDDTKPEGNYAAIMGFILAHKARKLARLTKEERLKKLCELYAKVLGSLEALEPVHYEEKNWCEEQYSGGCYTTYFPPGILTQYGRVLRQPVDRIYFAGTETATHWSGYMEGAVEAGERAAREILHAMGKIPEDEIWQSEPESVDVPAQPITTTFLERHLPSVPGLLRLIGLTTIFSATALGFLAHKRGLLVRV
Procedure: Subsequently, 200 U/mL horseradish peroxidase, 20 mM Ampliflu Red and 100 mM tyramine hydrochloride (Sigma-Aldrich) were added, and absorbance was measured at 570 nm every 5 min for 30 min. The inhibition percentage was calculated from these absorbance values.

[8] = test system: MKN45, RWP1 and H1299 cancer cells; experiment: MTT cell viability, summary over gastric, pancreatic and lung cancer cells; type: cell-based; conditions: range over the three cell lines; read-out: IC50 range across MKN45, RWP1 and H1299
Procedure: as §1

[9] = test system: U251-MG cells; experiment: MTT cell viability, U251-MG; type: cell-based
Procedure: as §1

[10] = test system: GNS179 patient-derived GSCs; experiment: MTT cell viability, GNS179; type: cell-based
Procedure: as §1

[11] = In vivo toxicity assay; conditions: intraperitoneal, 15 mg/kg
Procedure: Briefly, 15 mg/kg of MTP150 or vehicle (DMSO) was administered intraperitoneally to athymic nude-Foxn1^nu mice on a 5-days-on, 2-days-off schedule. Body weight was monitored to assess MSM potential toxicity. At the end-point, macroscopic analysis of the different organs was carried out.

[12] = test system: U87-MG subcutaneous tumors; experiment: In vivo carcinogenesis assay, monotherapy, subcutaneous U87-MG tumors; design: species or system mice
Procedure: (§2) Subcutaneous tumor growth was initiated by injecting 5 × 10^5 cells into both hind flanks of athymic nude-Foxn1^nu mice. Once the tumors reached 25–50 mm^3, mice were allocated to treatment groups by gender and tumor size. For monotherapy, mice were treated intratumorally with vehicle (DMSO dilution) or 200 µM of MTP150 or intraperitoneally with 15 mg/kg, on a 5-days-on, 2-days-off schedule. In combination therapy, 0.5 mg/Kg TMZ or vehicle was administered intraperitoneally during the first 5 days; intratumoral MTP150 or vehicle was delivered with the same schedule. After 4 weeks, mice were sacrificed and tumors were extracted.

[13] = Cell viability (MTT) of TMZ and MTP150 alone and combined; type: cell-based; conditions: 250 µM TMZ, 0.5 µM MTP150, 72 h
Procedure: as §1

[14] = test system: subcutaneous tumors; experiment: In vivo carcinogenesis assay, combination with TMZ; design: species or system mice
Procedure: as §2

[15] = test system: U87-MG cells; experiment: Western blot of acetylated α-tubulin and acetylated H3, U87-MG; type: cell-based; conditions: 0.5, 1 and 10 µM
Procedure: (§3) Sodium dodecyl sulfate-polyacrylamide gel electrophoresis was performed. Primary antibodies against HDAC1 (Abcam, Waltham, MA, USA) and HDAC6 (Cell Signaling, Danvers, MA, USA), along with their downstream targets, acetylated H3 (Cell Signaling) and acetylated α-tubulin (Abcam), were used. β-actin (Sigma-Aldrich) served as endogenous control. Secondary antibodies conjugated to horseradish peroxidase (anti-rabbit or anti-mouse; Cell Signaling) were applied. Proteins were detected using the iBright imaging system and either NOVEX ECL Chemi Substrate or SuperSignal West Femto Maximum Sensitivity Substrate (ThermoFisher, Waltham, MA, USA).

[16] = test system: GNS166 cells; experiment: Western blot of acetylated α-tubulin and acetylated H3, GNS166; type: cell-based; conditions: increasing concentrations
Procedure: as §3

[17] = test system: U251-MG cells; experiment: Immunofluorescence proliferation / apoptosis, U251-MG; type: cell-based; conditions: dose-dependent
Procedure: (§4) For immunofluorescence assays, cells were seeded at a density of 2 × 10^4 cells/well in 8-well immunofluorescence chambers (LabTek Thermo, Waltham, MA, USA) and incubated overnight. Following 48 h of treatment, cells were fixed with 4% PFA. Primary antibodies against phospho-Histone H3 (p-H3, Abcam) and Caspase 3 (R&D Systems, Minneapolis, MN, USA) and secondary antibodies Alexa Fluor anti-mouse and anti-rabbit (Invitrogen, Carlsbad, CA, USA) were used. Nuclei were stained with DAPI (Sigma-Aldrich). Images were acquired using an Axio Observer 7 epifluorescence microscope, and quantification was performed with Qupath software version 0.6.0.

[18] = test system: GNS179 cells; experiment: Immunofluorescence proliferation / apoptosis, GNS179; type: cell-based; conditions: dose-dependent
Procedure: as §4

[19] = target: BChE (Homo sapiens, UniProt P06276); experiment: BChE inhibition, Ellman's colorimetric method
Sequence of BChE (P06276 29-602, species assumed): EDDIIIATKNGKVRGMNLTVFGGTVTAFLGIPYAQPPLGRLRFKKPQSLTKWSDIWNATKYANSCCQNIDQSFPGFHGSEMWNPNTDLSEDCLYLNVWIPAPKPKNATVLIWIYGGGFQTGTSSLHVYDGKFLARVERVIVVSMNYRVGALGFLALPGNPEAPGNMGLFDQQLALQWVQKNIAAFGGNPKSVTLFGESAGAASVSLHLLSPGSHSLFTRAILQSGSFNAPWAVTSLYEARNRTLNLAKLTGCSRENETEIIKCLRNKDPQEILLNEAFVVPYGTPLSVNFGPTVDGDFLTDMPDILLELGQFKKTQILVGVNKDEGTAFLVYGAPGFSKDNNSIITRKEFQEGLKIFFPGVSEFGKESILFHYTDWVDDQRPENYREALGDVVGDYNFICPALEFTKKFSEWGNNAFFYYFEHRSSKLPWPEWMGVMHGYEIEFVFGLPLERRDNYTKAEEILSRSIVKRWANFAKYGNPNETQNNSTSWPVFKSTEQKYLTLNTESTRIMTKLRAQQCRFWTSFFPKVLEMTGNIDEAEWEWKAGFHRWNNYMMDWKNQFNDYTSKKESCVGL
Procedure: To assess ChEs inhibition, Ellman’s colorimetric method was followed. […] After incubation, the substrate solution (acetylthiocholine or butyrylthiocholine iodide, Sigma-Aldrich, at 1.5 mM) was added, and absorbance was recorded at 405 nm every minute for 10 min. […] Enzyme kinetics were evaluated with varying substrate and inhibitor concentrations, and the results were plotted as Lineweaver–Burk plots using GraphPad Prism software. The inhibition constant (Ki) was estimated from the intersection on the x-axis in secondary plots.

[20] = test system: HDAC1; design: method as in PMID 40109740; conditions: read-out: HDAC inhibitory activity HDAC1 (IC50); cited from earlier work
[21] = test system: HDAC6; design: method as in PMID 40109740; conditions: read-out: HDAC inhibitory activity HDAC6 (IC50); cited from earlier work
[22] = intraperitoneal treatment, immunohistochemistry at end-point
[23] = intratumoral, immunohistochemistry at end-point

O=C(/C=C/c1cccc(S(=O)(=O)Nc2ccccc2)c1)NO [Belinostat]
cell cycle alterations [1]: accumulation of cells in the subG0 phase

COc1ccc2c(ccn2S(=O)(=O)c2cccc(/C=C/C(=O)NO)c2)c1 [MTP142]
IC50 [2]: 3.22 µM
IC50 [3]: 9.78 µM
IC50 [4]: 3.27 µM
IC50 [5]: 970 nM
IC50 [6]: 5.64 µM

O=C(/C=C/c1cccc(S(=O)(=O)n2ccc3cc(OCCCN4CCCCC4)ccc32)c1)NO [MTP150]
IC50 [2]: 0.55 µM
IC50 [7]: 1.5 µM
IC50 [3]: 5.72 µM
IC50 [4]: 0.2 µM
IC50 [5]: 100 nM
IC50 [6]: 0.7 µM
IC50 [8]: 100 to 700 nM
IC50 ([9]; Homo sapiens, U-251, MTT): 1.02 µM
IC50 ([9]; MTT): 1 µM
IC50 [10]: 6.03 µM and 6 µM
animal body weight compared to controls ([11]; 5-days-on 2-days-off, 4 weeks): did not produce any significant changes in animal body weight
macroscopic analysis of post-mortem tissues ([11]; end-point): did not show clear differences
oncospheres generated by cells dissociated from treated tumors ([12]; 10 days in the absence of treatment): significantly fewer oncospheres
average tumor volume ([12]; intraperitoneal treatment, U87-MG subcutaneous tumors): ~ 270 mm^3
acetyl-α-tubulin and acetyl H3 staining in tumors [12, 22]: promotes an increase in both
cleaved Caspase 3 staining in tumors [12, 22]: increase in apoptosis
average tumor volume ([12]; intratumoral 200 µM): ~ 480 mm^3
reduction in final tumor volume vs control ([12]; intratumoral 200 µM): ~ 50%
tumor weight, lower mass than controls ([12]; intratumoral 200 µM, end-point day 39): > 40%
PCNA positive cells in resected tumors [12, 23]: fewer PCNA positive cells
cleaved Caspase 3 in resected tumors [12, 23]: increased cleaved Caspase 3
tumor inhibition compared with Belinostat ([12]; relative tumor inhibition): more intense tumor inhibition
viability at 72 h [13]: 37%
antitumor activity compared with Belinostat ([14]; monotherapy and combination with TMZ): greater antitumor activity
levels of acetylated α-tubulin and acetylated H3 [15]: highest levels of acetylated proteins; also recorded: higher levels of acetylated α-tubulin and H3 than both Belinostat and SAHA
levels of acetylated α-tubulin and acetylated H3 [16]: higher levels of acetylated α-tubulin and H3 than both Belinostat and SAHA
apoptosis (Caspase 3-positive cells) [17]: increased
proliferation (p-H3- and Ki67-positive cells) [17]: reduced
apoptosis (Caspase 3-positive cells) [18]: increased
proliferation (p-H3- and Ki67-positive cells) [18]: reduced
cell cycle alterations [1]: accumulation of cells in the subG0 phase
IC50 [19]: 8.09 µM
Ki [19]: 2510 nM
BChE inhibition mechanism ([19]; Lineweaver–Burk plot): mixed inhibition mechanism
inhibition at 10 µM ([19]; read-out: BChE inhibition): 60%

O=C(/C=C/c1cccc(S(=O)(=O)n2ccc3cc(OCc4ccccc4)ccc32)c1)NO [MTP156]
IC50 [2]: 3.13 µM
IC50 [3]: 7.69 µM
IC50 [4]: 5.74 µM
IC50 [5]: 1170 nM
IC50 [6]: 6.63 µM
cell cycle alterations [1]: accumulation of cells in the subG0 phase
IC50 [20]: 210 nM
IC50 [21]: 330 nM

Cn1nnc2c(C(N)=O)ncn2c1=O [TMZ, temozolomide, reference compound]
average tumor volume ([14]; TMZ 0.5 mg/Kg i.p. first 5 days, intratumoral MTP150 or vehicle): ~ 580 mm^3
